Measured values as given in patent US20260001871A1, “TRIAZOLE DERIVATIVES AS MODULATORS OF MAS-RELATED G-PROTEIN RECEPTOR D” (ESCIENT PHARMACEUTICALS, INC., priority 2022, published 2026).
pIC50: −log10 of the molar value.

Target: human MRGPRD (Homo sapiens, UniProt Q8TDS7)
Experiment: MRGPRD antagonist activity, IP-One HTRF assay in CHO cells stably expressing human MRGPRD (versus 100 μM β-Alanine agonist)
Assay type: cell-based
Procedure: Chinese Hamster Ovary (CHO) cells stably expressing human MRGPRD (Eurofins, San Diego CA) were plated in a 384-well plate at 20,000 cells per well in 12 μL of Optimem (Fisher Scientific 11-058-021). Plates were kept in the incubator at 37° C. overnight. Antagonists were solubilized at a concentration of 10 mM in DMSO, and the agonists were solubilized to stock concentrations of either 50 mM in H2O (β-Alanine) or 10 mM in DMSO (all others) and then diluted in assay buffer (final concentrations of 5.7 mM Tris-HCl, 43 mM NaCl, 50 mM LiCl, pH=8). The concentration of DMSO was normalized across the plate. Antagonists were added to the plate using a Tecan D300 Digital Dispenser at nanoliter/picoliter volumes and 2 μL of agonists in assay buffer were added to each well for a final assay volume of 14 μL. Plates were covered and incubated for 1 h at 37° C. and then for 1 h at room temperature. IP-1 standards and HTRF detection reagents were added according to an IP-One—Gq Kit purchased from Cisbio (part number 621PAPEJ) and incubated in the dark for 1 h at room temperature. Assay plates were read on either a Molecular Devices SpectraMax iD5 plate reader or a BMG ClarioStar plate reader. The HTRF ratio was calculated form the raw data and graphed using GraphPad Prism to calculate IC50 values. Data are expressed as average IC50 values and average percent antagonism calculated as a percent of the maximum efficacy response. For these studies, the variability of the data was assessed by determining the standard error of mean (SEM).
The activity ranges are denoted as follows: “+++++” denotes antagonist activity<100 nM; “++++” denotes antagonist activity between 100 and 500 nM; “+++” denotes activity between 500 and 1000 nM; “++” denotes activity between 1000 and 3000 nM; and “+” denotes activity>3000 nM.

Sequence of human MRGPRD (Q8TDS7 whole entry): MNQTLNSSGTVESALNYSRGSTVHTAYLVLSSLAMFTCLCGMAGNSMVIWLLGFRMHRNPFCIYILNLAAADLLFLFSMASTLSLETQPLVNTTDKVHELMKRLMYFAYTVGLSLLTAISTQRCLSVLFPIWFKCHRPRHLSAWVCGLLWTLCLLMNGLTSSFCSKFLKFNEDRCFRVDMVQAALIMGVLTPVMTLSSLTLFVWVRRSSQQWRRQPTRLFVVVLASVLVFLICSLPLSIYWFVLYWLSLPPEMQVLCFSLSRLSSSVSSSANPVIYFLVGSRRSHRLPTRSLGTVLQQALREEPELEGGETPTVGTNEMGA

Row | pIC50 | Compound
1 | 6.00 to 6.30 | CCn1nc(C)c(-c2ccc(-n3nnc(C(=O)Nc4ccc(NS(C)(=O)=O)cc4)c3C3CC3)cc2)c1C [Compound 9-28]
2 | 5.52 to 6.00 | CC(C)c1c(C(=O)NC2(c3cccnc3)CC2)nnn1-c1ccc(-c2ccc(C#N)cc2)cc1 [Compound 17-32]
3 | 5.52 to 6.00 | Cc1c(C(C)NC(=O)c2nnn(-c3ccc(-c4ccccc4)cc3)c2C2CC2)cnn1C (centres unmarked) [Compound 14-64]
4 | < 5.52 | CC1(NC(=O)c2nnn(-c3ccc(-c4ccccc4)cc3)c2C2CC2)CCOCC1 [Compound 14-74]
5 | 6.30 to 7.00 | Cc1ccc(-c2ccc(-n3nnc(C(=O)Nc4ccnc(C)c4)c3C3CC3)cc2)cn1 [Compound 17-9]
6 | 6.00 to 6.30 | COc1cc(C#N)ccc1-c1ccc(-n2nnc(C(=O)NC3(c4cncc(Cl)c4)CC3)c2C2CC2)cc1 [Compound 18-15]
7 | 6.00 to 6.30 | Cc1nn(C)c(C)c1-c1ccc(-n2nnc(C(=O)NC(C)c3cnn(C)c3)c2C2CC2)cc1 (centres unmarked) [Compound 15-4, 5-cyclopropyl-N-(1-(1-methyl-1H-pyrazol-4-yl)ethyl)-1-(4-(1,3,5-trimethyl-1H-pyrazol-4-yl)phenyl)-1H-1,2,3-triazole-4-carboxamide]
8 | 6.30 to 7.00 | Cc1ncccc1CNC(=O)c1nnn(-c2ccc(-c3ccc(CC#N)cc3)cc2)c1C1CC1 [Compound 16-2]
9 | 6.30 to 7.00 | Cn1ncc2c1CN(C(=O)c1nnn(-c3ccc(-c4ccccc4)cc3)c1C1CC1)C2 [Compound 14-17]
10 | 5.52 to 6.00 | CCn1cc(NC(=O)c2nnn(-c3ccc(-c4ccccc4)cc3)c2C2CC2)cn1 [Compound 14-45]
11 | 6.00 to 6.30 | Cc1csc(CNC(=O)c2nnn(-c3ccc(-c4ccccc4)cc3)c2C2CC2)n1 [Compound 14-21]
12 | 6.30 to 7.00 | N#Cc1ccc(-c2ccc(-n3nnc(C(=O)NC4(c5cncc(Cl)c5)CC4)c3C3CC3)cc2)cc1F [Compound 18-13]
13 | 6.30 to 7.00 | CCn1cc(CNC(=O)c2nnn(-c3ccc(-c4c(C)nn5cccnc45)cc3)c2C2CC2)cn1 [Compound 10-6]
14 | 5.52 to 6.00 | O=C(Nc1ccnc(N2CCOCC2)c1)c1nnn(-c2ccc(-c3ccccc3)cc2)c1C1CC1 [Compound 14-48]
15 | 6.00 to 6.30 | Cc1cc(C#N)ccc1-c1ccc(-n2nnc(C(=O)NC3(c4cncc(Cl)c4)CC3)c2C2CC2)cc1 [Compound 18-16]
16 | < 5.52 | Cc1nc(C(C)NC(=O)c2nnn(-c3ccc(-c4ccccc4)cc3)c2C2CC2)cs1 (centres unmarked) [Compound 14-13]
17 | 6.30 to 7.00 | CCn1cc(CNC(=O)c2nnn(-c3ccc(-c4ccc(C#N)cc4)cc3OC)c2C(C)C)cn1 [Compound 17-21]
18 | 6.30 to 7.00 | COc1cc(-c2ccc(C#N)cc2)ccc1-n1nnc(C(=O)Nc2ccnc(C)c2)c1C(C)C [Compound 17-12]
19 | 6.30 to 7.00 | CCn1cc(CNC(=O)c2nnn(-c3ccc(-c4ccc(C#N)cc4)cc3)c2C2CC2)cn1 [Compound 17-4]
20 | 6.30 to 7.00 | Cc1ccc(CNC(=O)c2nnn(-c3ccc(-c4c(C)nn5ccccc45)cc3)c2C2CC2)cn1 [Compound 17-1]
21 | 5.52 to 6.00 | O=C(Nc1ncnc2[nH]ncc12)c1nnn(-c2ccc(-c3ccccc3)cc2)c1C1CC1 [Compound 14-53]
22 | 6.30 to 7.00 | Cc1cc(NC(=O)c2nnn(-c3ccc(-c4c(C)nn5ccccc45)cc3)c2C(C)C)ccn1 [Compound 10-12]
23 | < 5.52 | O=C(NCc1cscn1)c1nnn(-c2ccc(-c3ccccc3)cc2)c1C1CC1 [Compound 14-11]
24 | 5.52 to 6.00 | NC(=O)c1ccc(-c2ccc(-n3nnc(C(=O)NC4(c5cccnc5)CC4)c3C3CC3)cc2)cc1 [Compound 18-4]
25 | > 7.00 | CCn1nc(C)c(-c2ccc(-n3nnc(C(=O)Nc4ccnc(C)c4)c3C3CC3)cc2)c1C [Compound 9-1, 5-cyclopropyl-1-(4-(1-ethyl-3,5-dimethyl-1H-pyrazol-4-yl)phenyl)-N-(2-methylpyridin-4-yl)-1H-1,2,3-triazole-4-carboxamide]

Further lines, the compound ahead of its results:

Row | Compound | pIC50
26 | Cc1cc(-n2nnc(C(=O)Nc3ccncc3)c2C2CC2)ccc1-c1c(C)nn(C)c1C [Compound 7-315] | 5.52 to 6.00
27 | CC(=O)c1ccc(-c2cccc(-n3nnc(C(=O)Nc4ccncc4)c3C3CC3)c2)c(F)c1C [Compound 7-252] | 6.00 to 6.30
28 | Cc1cc(NC(=O)c2nnn(-c3ccc(-c4ccc(C#N)cc4C)cc3)c2C2CC2)ccn1 [Compound 7-52] | 6.30 to 7.00
29 | Cn1nc(C2CC2)cc1-c1ccc(-n2nnc(C(=O)Nc3ccncc3)c2C2CC2)cc1 [Compound 7-109] | 6.30 to 7.00
30 | Cc1cc(NC(=O)c2nnn(-c3cccc(-c4c(C)nn(C)c4C)c3)c2C2CC2)ccn1 [Compound 7-291] | 5.52 to 6.00
31 | Cn1cc(-c2ccc(-n3nnc(C(=O)Nc4ccncc4)c3C3CC3)cc2)c(C(F)(F)F)n1 [Compound 7-217] | < 5.52
32 | O=C(Nc1ccncc1)c1nnn(-c2ccc(-c3cc(CO)[nH]n3)cc2)c1C1CC1 [Compound 7-211] | 5.52 to 6.00
33 | COc1ccc(-c2ccc(-n3nnc(C(=O)Nc4ccncc4)c3C3CC3)cc2)c(F)c1 [Compound 7-35] | 6.30 to 7.00
34 | COc1cccc(-n2nnc(C(=O)Nc3ccncc3)c2C2CC2)c1 [Compound 3-4] | 5.52 to 6.00
35 | N#Cc1c[nH]nc1-c1ccc(-n2nnc(C(=O)Nc3ccncc3)c2C2CC2)cc1 [Compound 7-143] | 6.00 to 6.30
36 | N#Cc1ccc(-c2cccc(-n3nnc(C(=O)Nc4ccncc4)c3C3CC3)c2)cc1 [Compound 7-264] | 6.00 to 6.30
37 | O=C(Nc1ccncc1)c1nnn(-c2cccc(-c3cccc(O)c3)c2)c1C1CC1 [Compound 7-299] | 5.52 to 6.00
38 | O=C(Nc1ccncc1)c1nnn(-c2ccc(-c3cccc(F)c3)cc2)c1C1CC1 [Compound 7-190] | 5.52 to 6.00
39 | Cn1nc(-c2ccc(-n3nnc(C(=O)Nc4ccncc4)c3C3CC3)cc2)cc1N [Compound 7-215] | < 5.52
40 | Cc1ccc(CNC(=O)c2nnn(-c3ccc(-c4ccc(C#N)cc4C)cc3)c2C2CC2)cn1 [Compound 7-95] | 6.30 to 7.00
41 | COc1ccc(-c2cccc(-n3nnc(C(=O)Nc4ccncc4)c3C3CC3)c2)cc1F [Compound 7-303] | 5.52 to 6.00
42 | O=C(Nc1ccncc1)c1nnn(-c2ccc(-c3ncc[nH]3)cc2)c1C1CC1 [Compound 7-3] | < 5.52
43 | O=C(Nc1ccncc1)c1nnn(-c2cccc(-c3cnn(C(F)F)c3)c2)c1C1CC1 [Compound 7-329] | < 5.52
44 | O=C(Nc1ccncc1)c1nnn(-c2ccc(-c3cccc(CC(F)(F)F)c3)cc2)c1C1CC1 [Compound 7-107] | 6.30 to 7.00
45 | Cc1cc(NC(=O)c2nnn(-c3cccc(-c4ccn(-c5ccccc5)n4)c3)c2C2CC2)ccn1 [Compound 7-282] | 6.00 to 6.30

Row | Compound | pIC50
46 | O=C(Nc1ccncc1)c1nnn(-c2cccc(-c3ccc(F)cc3)c2)c1C1CC1 [Compound 7-311] | 5.52 to 6.00
47 | O=C(Nc1ccncc1)c1nnn(-c2cccc(-c3ccccc3)c2)c1C1CC1 [Compound 4-11] | 5.52 to 6.00
48 | N#Cc1ccc(-c2ccc(-n3nnc(C(=O)Nc4ccncc4)c3C3CC3)cc2)cc1 [Compound 7-39] | 6.30 to 7.00
49 | Cc1ccc(-n2nnc(C(=O)Nc3ccncc3)c2C2CC2)cc1-c1ccccc1 [Compound 5-7] | 5.52 to 6.00
50 | Cc1cc(NC(=O)c2nnn(-c3ccc(-c4ccccc4)c(F)c3)c2C2CC2)ccn1 [Compound 7-205] | 5.52 to 6.00
51 | O=C(Nc1ccncc1)c1nnn(-c2ccc(C3=CCOCC3)cc2)c1C1CC1 [Compound 7-114] | 6.00 to 6.30
52 | O=C(Nc1ccncc1)c1nnn(-c2ccc(-c3ccnn3C3CCC3)cc2)c1C1CC1 [Compound 7-116] | 6.00 to 6.30
53 | Cc1cc(-n2nnc(C(=O)Nc3ccncc3)c2C2CC2)ccc1-c1cn(C)nc1C [Compound 7-246] | 6.00 to 6.30
54 | Cc1cc(NC(=O)c2nnn(-c3cccc(-c4ccn(C)n4)c3)c2C2CC2)ccn1 [Compound 7-253] | 6.00 to 6.30
55 | CC(=O)c1ccc(-c2cccc(-n3nnc(C(=O)Nc4ccncc4)c3C3CC3)c2)c(F)c1 [Compound 7-229] | 6.30 to 7.00
56 | Cc1ccc(-n2nnc(C(=O)Nc3ccnc(F)c3)c2C2CC2)cc1 [Compound 1-7] | 6.00 to 6.30
57 | COc1ccccc1-c1cccc(-n2nnc(C(=O)Nc3ccncc3)c2C2CC2)c1 [Compound 7-320] | 5.52 to 6.00
58 | Cc1nn(C)c(C)c1-c1ccc(-n2nnc(C(=O)Nc3ccncc3)c2C2CC2)cc1C#N [Compound 7-250] | 6.00 to 6.30
59 | Cn1cc(-c2ccc(-n3nnc(C(=O)Nc4ccncc4)c3C3CC3)cc2)cn1 [Compound 7-126] | 6.00 to 6.30
60 | O=C(Nc1ccncc1)c1nnn(-c2ccc(-c3ccc(CC4CC4)cc3)cc2)c1C1CC1 [Compound 7-149] | 6.00 to 6.30
61 | CC(C)n1cc(-c2cc(-n3nnc(C(=O)Nc4ccncc4)c3C3CC3)ccc2F)cn1 [Compound 7-289] | 5.52 to 6.00
62 | CN(C)c1ccccc1-c1ccc(-n2nnc(C(=O)Nc3ccncc3)c2C2CC2)cc1 [Compound 7-172] | 5.52 to 6.00
63 | Cc1nn(-c2ccccc2)c(C)c1-c1cccc(-n2nnc(C(=O)Nc3ccncc3)c2C2CC2)c1 [Compound 7-255] | 6.00 to 6.30
64 | CCCn1cc(-c2cccc(-n3nnc(C(=O)Nc4ccncc4)c3C3CC3)c2)cn1 [Compound 7-306] | 5.52 to 6.00
65 | Cc1cc(NC(=O)c2nnn(-c3ccc(-c4cnn(Cc5ccccc5)c4)cc3)c2C2CC2)ccn1 [Compound 7-19] | > 7.00
